Source: ChEMBL document CHEMBL4321812, “Structure-based rational design of staurosporine-based fluorescent probe with broad-ranging kinase affinity for kinase panel application” (Bioorg Med Chem Lett, 2019)

How the values were obtained:
[1] = target: Serine/threonine-protein kinase ULK1 (Homo sapiens, UniProt O75385); test: Binding affinity to recombinant N-terminal His-FLAG-GST-tagged ULK1 (unknown origin) (1 to 649 residues) expressed in baculovirus infected Sf9 insect cells incubated for 1 hr by TR-FRET assay
[2] = target: Serine/threonine-protein kinase DCLK3 (Homo sapiens, UniProt Q9C098); test: Binding affinity to recombinant full-length N-terminal His-FLAG-tagged DCLK3 (unknown origin) expressed in baculovirus infected Sf9 insect cells incubated for 1 hr by TR-FRET assay
Myotonin-protein kinase = Myotonin-protein kinase (Homo sapiens, UniProt Q09013); test: Binding affinity to recombinant full-length N-terminal His-FLAG-GST-tagged DMPK (unknown origin) expressed in baculovirus infected Sf9 insect cells incubated for 1 hr by TR-FRET assay
[3] = target: Interleukin-1 receptor-associated kinase 4 (Homo sapiens, UniProt Q9NWZ3); test: Binding affinity to recombinant full-length human N-terminal his-tagged IRAK4 expressed in baculovirus expression system using IRAK1 peptide as substrate incubated for 1 hr by TR-FRET assay
[4] = target: STE20-like serine/threonine-protein kinase (Homo sapiens, UniProt Q9H2G2); test: Binding affinity to recombinant N-terminal His-FLAG-GST-tagged SLK (unknown origin) (1 to 1152 residues) expressed in baculovirus infected Sf9 insect cells incubated for 1 hr by TR-FRET assay
STE20-like serine/threonine-protein kinase, sequence (Q9H2G2 whole entry, the tested form may be a part): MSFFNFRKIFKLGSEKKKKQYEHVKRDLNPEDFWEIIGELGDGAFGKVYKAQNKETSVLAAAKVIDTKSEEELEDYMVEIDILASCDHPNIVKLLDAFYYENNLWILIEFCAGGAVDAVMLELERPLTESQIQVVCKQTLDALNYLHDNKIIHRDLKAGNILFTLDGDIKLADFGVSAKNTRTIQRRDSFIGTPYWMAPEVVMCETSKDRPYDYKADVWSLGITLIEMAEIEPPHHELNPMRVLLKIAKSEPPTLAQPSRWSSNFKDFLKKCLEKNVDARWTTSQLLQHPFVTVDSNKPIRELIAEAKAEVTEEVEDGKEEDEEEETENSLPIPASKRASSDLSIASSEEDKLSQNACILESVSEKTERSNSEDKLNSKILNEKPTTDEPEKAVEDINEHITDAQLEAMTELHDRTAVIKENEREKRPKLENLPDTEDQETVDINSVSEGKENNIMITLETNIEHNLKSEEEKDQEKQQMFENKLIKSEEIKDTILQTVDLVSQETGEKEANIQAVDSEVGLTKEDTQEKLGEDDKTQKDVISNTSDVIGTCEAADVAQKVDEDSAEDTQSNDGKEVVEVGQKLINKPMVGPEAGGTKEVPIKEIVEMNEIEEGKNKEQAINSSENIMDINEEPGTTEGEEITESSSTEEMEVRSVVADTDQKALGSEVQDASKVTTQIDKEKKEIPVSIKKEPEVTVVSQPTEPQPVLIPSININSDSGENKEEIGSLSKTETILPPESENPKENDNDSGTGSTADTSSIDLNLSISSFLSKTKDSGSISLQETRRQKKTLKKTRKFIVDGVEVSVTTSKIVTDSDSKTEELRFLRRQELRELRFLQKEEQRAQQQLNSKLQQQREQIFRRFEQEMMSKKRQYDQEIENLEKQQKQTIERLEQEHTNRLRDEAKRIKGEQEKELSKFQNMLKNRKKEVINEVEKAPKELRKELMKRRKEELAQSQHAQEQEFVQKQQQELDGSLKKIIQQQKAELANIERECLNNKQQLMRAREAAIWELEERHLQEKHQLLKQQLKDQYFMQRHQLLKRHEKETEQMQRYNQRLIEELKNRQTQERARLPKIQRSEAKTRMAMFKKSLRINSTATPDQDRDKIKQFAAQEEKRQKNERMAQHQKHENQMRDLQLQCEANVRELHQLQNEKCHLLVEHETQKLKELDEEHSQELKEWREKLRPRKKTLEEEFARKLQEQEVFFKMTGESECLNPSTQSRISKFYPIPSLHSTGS

[5] = target: Serine/threonine-protein kinase 3 (Homo sapiens, UniProt Q13188); test: Binding affinity to recombinant full-length N-terminal His-FLAG-GST-tagged STK3 (unknown origin) expressed in baculovirus infected Sf9 insect cells incubated for 1 hr by TR-FRET assay
[6] = target: Serine/threonine-protein kinase LATS2 (Homo sapiens, UniProt Q9NRM7); test: Binding affinity to recombinant full-length N-terminal His-FLAG-GST-tagged LATS2 (unknown origin) (553 to 1088 residues) expressed in baculovirus infected Sf9 insect cells incubated for 1 hr by TR-FRET assay
[7] = target: Proto-oncogene tyrosine-protein kinase Src (Homo sapiens, UniProt P12931); test: Binding affinity to recombinant full-length N-terminal His-FLAG-GST-tagged SRC (unknown origin) expressed in baculovirus infected Sf9 insect cells incubated for 1 hr by TR-FRET assay
Proto-oncogene tyrosine-protein kinase Src, sequence (P12931 2-536 limits assumed): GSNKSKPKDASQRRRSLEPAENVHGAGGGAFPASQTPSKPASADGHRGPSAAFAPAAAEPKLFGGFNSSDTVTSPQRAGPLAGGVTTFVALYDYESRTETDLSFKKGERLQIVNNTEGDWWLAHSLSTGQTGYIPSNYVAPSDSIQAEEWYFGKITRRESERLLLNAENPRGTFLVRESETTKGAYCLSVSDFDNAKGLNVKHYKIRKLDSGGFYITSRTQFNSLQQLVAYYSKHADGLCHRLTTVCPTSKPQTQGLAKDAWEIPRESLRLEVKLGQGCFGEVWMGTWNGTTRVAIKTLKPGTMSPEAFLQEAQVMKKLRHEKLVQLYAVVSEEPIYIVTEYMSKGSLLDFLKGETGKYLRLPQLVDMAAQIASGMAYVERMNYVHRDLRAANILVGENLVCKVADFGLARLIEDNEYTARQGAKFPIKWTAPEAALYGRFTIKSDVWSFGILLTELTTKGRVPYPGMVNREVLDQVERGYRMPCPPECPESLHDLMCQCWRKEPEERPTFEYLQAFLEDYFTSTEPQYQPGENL

[8] = target: Protein kinase C gamma type (Homo sapiens, UniProt P05129); test: Binding affinity to recombinant full-length N-terminal His-FLAG-tagged PRKCG (unknown origin) expressed in baculovirus infected Sf9 insect cells incubated for 1 hr by TR-FRET assay
[9] = target: Serine/threonine-protein kinase PLK4 (Homo sapiens, UniProt O00444); test: Binding affinity to recombinant full-length N-terminal His-FLAG-GST-tagged PLK4 (unknown origin) (1 to 836 residues) expressed in baculovirus infected Sf9 insect cells incubated for 1 hr by TR-FRET assay
[10] = target: Serine/threonine-protein kinase PAK 6 (Homo sapiens, UniProt Q9NQU5); test: Binding affinity to recombinant human full-length N-terminal GST-tagged PAK6 expressed in baculovirus expression system using SGKtide as substrate incubated for 1 hr by TR-FRET assay
[11] = target: Receptor tyrosine-protein kinase erbB-4 (Homo sapiens, UniProt Q15303); test: Binding affinity to recombinant human full-length N-terminal GST-tagged ERBB4 expressed in baculovirus expression system using srctide as substrate incubated for 1 hr by TR-FRET assay
Receptor tyrosine-protein kinase erbB-4, sequence (Q15303 whole entry): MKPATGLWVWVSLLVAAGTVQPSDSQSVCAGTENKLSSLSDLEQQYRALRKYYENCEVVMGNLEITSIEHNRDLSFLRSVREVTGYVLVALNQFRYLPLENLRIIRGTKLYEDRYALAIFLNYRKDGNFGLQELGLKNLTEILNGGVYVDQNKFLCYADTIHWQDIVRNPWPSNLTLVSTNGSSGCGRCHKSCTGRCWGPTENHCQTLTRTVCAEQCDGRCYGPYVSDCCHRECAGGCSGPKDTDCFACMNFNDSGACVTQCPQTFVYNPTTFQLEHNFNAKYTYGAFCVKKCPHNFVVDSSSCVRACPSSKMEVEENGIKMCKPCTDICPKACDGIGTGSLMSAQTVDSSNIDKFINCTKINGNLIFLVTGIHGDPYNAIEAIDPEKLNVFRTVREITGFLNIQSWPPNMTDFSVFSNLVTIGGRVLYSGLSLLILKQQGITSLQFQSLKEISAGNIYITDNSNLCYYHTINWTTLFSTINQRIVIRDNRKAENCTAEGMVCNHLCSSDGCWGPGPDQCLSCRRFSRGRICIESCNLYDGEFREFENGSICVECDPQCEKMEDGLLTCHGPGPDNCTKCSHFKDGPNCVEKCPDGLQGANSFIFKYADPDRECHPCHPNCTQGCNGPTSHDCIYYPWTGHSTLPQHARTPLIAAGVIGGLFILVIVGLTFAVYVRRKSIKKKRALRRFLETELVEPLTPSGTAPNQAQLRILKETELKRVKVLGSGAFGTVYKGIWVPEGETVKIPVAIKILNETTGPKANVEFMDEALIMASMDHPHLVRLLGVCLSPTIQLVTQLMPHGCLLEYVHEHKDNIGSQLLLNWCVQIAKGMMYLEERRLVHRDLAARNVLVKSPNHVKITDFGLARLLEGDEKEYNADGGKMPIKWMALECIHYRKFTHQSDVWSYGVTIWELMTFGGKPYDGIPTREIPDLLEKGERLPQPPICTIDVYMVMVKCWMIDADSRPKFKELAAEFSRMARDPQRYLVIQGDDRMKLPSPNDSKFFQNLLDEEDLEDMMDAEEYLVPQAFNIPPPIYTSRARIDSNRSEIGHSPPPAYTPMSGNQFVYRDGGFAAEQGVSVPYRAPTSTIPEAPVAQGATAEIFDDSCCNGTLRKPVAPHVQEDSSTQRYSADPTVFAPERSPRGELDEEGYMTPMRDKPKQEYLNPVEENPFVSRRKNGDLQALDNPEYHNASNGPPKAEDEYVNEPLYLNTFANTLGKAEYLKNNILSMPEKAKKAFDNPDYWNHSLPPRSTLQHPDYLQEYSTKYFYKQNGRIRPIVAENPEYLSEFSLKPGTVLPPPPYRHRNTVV

[12] = target: Tyrosine-protein kinase Fer (Homo sapiens, UniProt P16591); test: Binding affinity to recombinant full-length N-terminal His-FLAG-GST-tagged FER (unknown origin) expressed in baculovirus infected Sf9 insect cells incubated for 1 hr by TR-FRET assay
Tyrosine-protein kinase Fer, sequence (P16591 whole entry, the tested form may be a part): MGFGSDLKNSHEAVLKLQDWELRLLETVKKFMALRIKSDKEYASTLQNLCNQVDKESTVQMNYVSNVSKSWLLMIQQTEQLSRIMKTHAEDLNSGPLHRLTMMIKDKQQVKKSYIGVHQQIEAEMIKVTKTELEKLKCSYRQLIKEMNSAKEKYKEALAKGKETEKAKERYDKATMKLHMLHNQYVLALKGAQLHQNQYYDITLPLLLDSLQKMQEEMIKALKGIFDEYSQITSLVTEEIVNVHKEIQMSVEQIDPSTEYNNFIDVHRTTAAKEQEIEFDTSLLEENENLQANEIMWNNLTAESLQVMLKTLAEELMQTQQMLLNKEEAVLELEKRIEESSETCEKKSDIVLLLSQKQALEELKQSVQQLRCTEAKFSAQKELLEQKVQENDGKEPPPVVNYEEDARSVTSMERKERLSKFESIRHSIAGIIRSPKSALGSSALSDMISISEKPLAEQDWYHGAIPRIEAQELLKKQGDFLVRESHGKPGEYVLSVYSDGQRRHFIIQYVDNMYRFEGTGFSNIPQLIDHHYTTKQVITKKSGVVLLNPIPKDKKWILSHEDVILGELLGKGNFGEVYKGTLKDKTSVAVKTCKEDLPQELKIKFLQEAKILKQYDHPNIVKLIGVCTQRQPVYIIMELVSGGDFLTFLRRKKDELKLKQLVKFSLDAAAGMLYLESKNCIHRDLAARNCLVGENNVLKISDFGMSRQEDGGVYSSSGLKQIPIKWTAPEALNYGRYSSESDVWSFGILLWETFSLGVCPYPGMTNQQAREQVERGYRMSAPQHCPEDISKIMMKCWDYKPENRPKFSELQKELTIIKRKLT

[13] = target: Homeodomain-interacting protein kinase 3 (Homo sapiens, UniProt Q9H422); test: Binding affinity to recombinant N-terminal His-FLAG-GST-tagged HIPK3 (unknown origin) (161 to 562 residues) expressed in baculovirus infected Sf9 insect cells incubated for 1 hr by TR-FRET assay
Focal adhesion kinase 1 = Focal adhesion kinase 1 (Homo sapiens, UniProt Q05397); test: Binding affinity to recombinant human full length N-terminal GST-tagged PTK2 expressed in baculovirus expression system incubated for 1 hr by TR-FRET assay
CDK9/cyclin T1 = CDK9/cyclin T1 (Homo sapiens, UniProt P50750); test: Binding affinity to recombinant human full length N-terminal GST-tagged CDK9 co-expressed with full length N-terminal His-tagged CyclinT1 expressed in baculovirus expression system using CDK9 substrate incubated for 1 hr by TR-FRET assay
[14] = target: Hepatocyte growth factor receptor (Homo sapiens, UniProt P08581); test: Binding affinity to recombinant full-length N-terminal His-FLAG-GST-tagged MET (unknown origin) (956 to 1390 residues) expressed in baculovirus infected Sf9 insect cells incubated for 1 hr by TR-FRET assay
[15] = target: Tyrosine-protein kinase Fyn (Homo sapiens, UniProt P06241); test: Binding affinity to recombinant full-length N-terminal His-FLAG-tagged FYN (unknown origin) expressed in baculovirus infected Sf9 insect cells incubated for 1 hr by TR-FRET assay
[16] = target: Serine/threonine-protein kinase ULK2 (Homo sapiens, UniProt Q8IYT8); test: Binding affinity to recombinant N-terminal His-FLAG-GST-tagged ULK2 (unknown origin) (1 to 478 residues) expressed in baculovirus infected Sf9 insect cells incubated for 1 hr by TR-FRET assay
Serine/threonine-protein kinase ULK2, sequence (Q8IYT8 whole entry, the tested form may be a part): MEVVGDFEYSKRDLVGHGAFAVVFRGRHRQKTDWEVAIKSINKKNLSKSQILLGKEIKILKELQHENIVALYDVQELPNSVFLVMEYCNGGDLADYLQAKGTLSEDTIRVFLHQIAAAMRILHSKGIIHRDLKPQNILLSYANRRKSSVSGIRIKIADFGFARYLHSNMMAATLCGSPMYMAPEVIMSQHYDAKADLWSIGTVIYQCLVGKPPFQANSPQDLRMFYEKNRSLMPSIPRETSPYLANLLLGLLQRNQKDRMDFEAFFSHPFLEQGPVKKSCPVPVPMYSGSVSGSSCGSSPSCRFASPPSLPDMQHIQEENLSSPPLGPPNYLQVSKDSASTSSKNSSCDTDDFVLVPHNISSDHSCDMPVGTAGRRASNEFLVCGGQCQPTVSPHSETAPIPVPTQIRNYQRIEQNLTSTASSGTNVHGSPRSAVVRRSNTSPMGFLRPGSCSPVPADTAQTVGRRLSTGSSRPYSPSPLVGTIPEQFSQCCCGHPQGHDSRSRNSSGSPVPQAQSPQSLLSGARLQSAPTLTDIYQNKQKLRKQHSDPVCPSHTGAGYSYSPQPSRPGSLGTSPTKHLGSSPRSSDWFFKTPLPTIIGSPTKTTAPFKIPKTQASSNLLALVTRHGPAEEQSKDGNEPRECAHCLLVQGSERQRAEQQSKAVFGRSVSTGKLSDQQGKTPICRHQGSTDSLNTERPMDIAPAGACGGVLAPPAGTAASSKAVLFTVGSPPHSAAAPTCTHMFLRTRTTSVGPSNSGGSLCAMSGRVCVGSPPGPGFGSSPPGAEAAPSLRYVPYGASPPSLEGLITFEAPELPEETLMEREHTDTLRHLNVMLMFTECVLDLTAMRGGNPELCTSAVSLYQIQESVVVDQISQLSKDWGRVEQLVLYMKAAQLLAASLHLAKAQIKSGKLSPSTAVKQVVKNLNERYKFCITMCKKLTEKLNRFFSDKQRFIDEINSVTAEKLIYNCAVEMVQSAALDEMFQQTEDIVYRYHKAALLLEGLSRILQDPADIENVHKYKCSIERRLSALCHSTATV

[17] = target: Mitogen-activated protein kinase kinase kinase kinase 1 (Homo sapiens, UniProt Q92918); test: Binding affinity to recombinant N-terminal His-FLAG-GST-tagged MAP4K1 (unknown origin) (1 to 346 residues) expressed in baculovirus infected Sf9 insect cells incubated for 1 hr by TR-FRET assay
[18] = target: Dual specificity protein kinase CLK1 (Homo sapiens, UniProt P49759); test: Binding affinity to recombinant N-terminal His-FLAG-GST-tagged CLK1 (unknown origin) (129 to 484 residues) expressed in baculovirus infected Sf9 insect cells incubated for 1 hr by TR-FRET assay
[19] = target: Protein kinase C theta type (Homo sapiens, UniProt Q04759); test: Binding affinity to recombinant full-length N-terminal His-GST-tagged PRKCQ (unknown origin) expressed in baculovirus infected Sf9 insect cells incubated for 1 hr by TR-FRET assay
[20] = target: Protein kinase C beta type (Homo sapiens, UniProt P05771); test: Binding affinity to recombinant full-length N-terminal His-FLAG-tagged PRKCB (unknown origin) expressed in baculovirus infected Sf9 insect cells incubated for 1 hr by TR-FRET assay
[21] = target: Rho-associated protein kinase 2 (Homo sapiens, UniProt O75116); test: Binding affinity to recombinant full-length N-terminal His-FLAG-GST-tagged ROCK2 (unknown origin) (1 to 553 residues) expressed in baculovirus infected Sf9 insect cells incubated for 1 hr by TR-FRET assay
[22] = target: Mitogen-activated protein kinase 15 (Homo sapiens, UniProt Q8TD08); test: Binding affinity to recombinant full-length N-terminal His-FLAG-GST-tagged MAPK15 (unknown origin) expressed in baculovirus infected Sf9 insect cells incubated for 1 hr by TR-FRET assay

CO[C@@H]1[C@H](N(C)CCOCCOCCOCCNC(=O)CCC2=[N+]3C(=Cc4c(C)cc(C)n4[B-]3(F)F)C=C2)C[C@H]2O[C@]1(C)n1c3ccccc3c3c4c(c5c6ccccc6n2c5c31)C(=O)NC4
Kd [1]: 311 nM
Kd [2]: 104 nM
Kd (Myotonin-protein kinase): 94 nM
Kd [3]: 75 nM
Kd [4]: 6 nM
Kd [5]: 3 nM
Kd [6]: 223 nM
Kd [7]: 572 nM
Kd [8]: 46 nM
Kd [9]: 20 nM
Kd [10]: 25 nM
Kd [11]: 798 nM
Kd [12]: 30 nM
Kd [13]: 1030 nM
Kd (Focal adhesion kinase 1): 308 nM
Kd (CDK9/cyclin T1): 116 nM
Kd [14]: 812 nM
Kd [15]: 322 nM
Kd [16]: 61 nM
Kd [17]: 24 nM
Kd [18]: 125 nM
Kd [19]: 19 nM
Kd [20]: 17 nM
Kd [21]: 16 nM
Kd [22]: 306 nM

CO[C@@H]1[C@H](NCCOCCOCCOCCNC(=O)CCC2=[N+]3C(=Cc4c(C)cc(C)n4[B-]3(F)F)C=C2)C[C@H]2O[C@]1(C)n1c3ccccc3c3c4c(c5c6ccccc6n2c5c31)C(=O)NC4
Kd [1]: 135 nM
Kd [2]: 60 nM
Kd (Myotonin-protein kinase): 90 nM
Kd [3]: 23 nM
Kd [4]: 5 nM
Kd [5]: 6 nM
Kd [6]: 135 nM
Kd [7]: 452 nM
Kd [8]: 72 nM
Kd [9]: 33 nM
Kd [10]: 22 nM
Kd [11]: 496 nM
Kd [12]: 27 nM
Kd [13]: 798 nM
Kd (Focal adhesion kinase 1): 401 nM
Kd (CDK9/cyclin T1): 162 nM
Kd [14]: 930 nM
Kd [15]: 267 nM
Kd [16]: 30 nM
Kd [17]: 17 nM
Kd [18]: 93 nM
Kd [19]: 28 nM
Kd [20]: 65 nM
Kd [21]: 23 nM
Kd [22]: 113 nM
